Results published in PubChem BioAssay AID248 (DTP/NCI, 2004).
Where “and” joins values, the source holds several entries; their conditions need not be identical. Equal values may be shown once. Inconclusive results and toxic doses are left out. No stated cut-off is given here; in the data, active means T/C of 150% or more; inactive means T/C below 125%.

Test system: L1210 leukemia ip in BDF1 mice, survival T/C
Assay: NCI In Vivo Anticancer Drug Screen. Data for tumor model L1210 Leukemia (intraperitoneal) in B6D2F1 (BDF1) mice
Conditions: endpoint: mean survival time, higher = longer survival
How it was run: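 Transplanted-tumor mice were given test agent; controls received vehicle only. Survival readings from the two groups were divided (treated over control).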

[1] = dose: 25.0 mg/kg/injection, schedule: Q01DX009 (ip), vehicle: Klucel (hydroxypropylcellulose) (HPC)
[2] = dose: 50.0 mg/kg/injection, schedule: Q01DX009 (ip), vehicle: Klucel (hydroxypropylcellulose) (HPC)
[3] = dose: 100.0 mg/kg/injection, schedule: Q04DX003 (ip), vehicle: Klucel (hydroxypropylcellulose) (HPC)
[4] = dose: 200.0 mg/kg/injection, schedule: Q04DX003 (ip), vehicle: Klucel (hydroxypropylcellulose) (HPC)
[5] = dose: 400.0 mg/kg/injection, schedule: Q01DX009 (ip), vehicle: Klucel (hydroxypropylcellulose) (HPC)
[6] = dose: 100.0 mg/kg/injection, schedule: Q01DX009 (ip), vehicle: saline
[7] = dose: 200.0 mg/kg/injection, schedule: Q01DX009 (ip), vehicle: saline
[8] = dose: 400.0 mg/kg/injection, schedule: Q01DX009 (ip), vehicle: saline
[9] = dose: 100.0 mg/kg/injection, schedule: Q01DX009 (ip), vehicle: saline with Tween-80
[10] = dose: 200.0 mg/kg/injection, schedule: Q01DX009 (ip), vehicle: saline with Tween-80
[11] = dose: 400.0 mg/kg/injection, schedule: Q01DX009 (ip), vehicle: saline with Tween-80
[12] = dose: 12.5 mg/kg/injection, schedule: Q01DX009 (ip), vehicle: Klucel (hydroxypropylcellulose) (HPC)
[13] = dose: 100.0 mg/kg/injection, schedule: Q04DX002 (ip), vehicle: saline with Tween-80
[14] = dose: 100.0 mg/kg/injection, schedule: Q01DX009 (ip), vehicle: Klucel (hydroxypropylcellulose) (HPC)
[15] = dose: 200.0 mg/kg/injection, schedule: Q01DX009 (ip), vehicle: Klucel (hydroxypropylcellulose) (HPC)
[16] = dose: 400.0 mg/kg/injection, schedule: Q04DX003 (ip), vehicle: Klucel (hydroxypropylcellulose) (HPC)
[17] = dose: 25.0 mg/kg/injection, schedule: Q04DX002 (ip), vehicle: saline
[18] = dose: 50.0 mg/kg/injection, schedule: Q04DX002 (ip), vehicle: saline
[19] = dose: 100.0 mg/kg/injection, schedule: Q01DX001 (ip), vehicle: saline
[20] = dose: 200.0 mg/kg/injection, schedule: Q01DX001 (ip), vehicle: saline
[21] = dose: 400.0 mg/kg/injection, schedule: Q01DX001 (ip), vehicle: saline
[22] = dose: 100.0 mg/kg/injection, schedule: Q04DX002 (ip), vehicle: Klucel (hydroxypropylcellulose) (HPC)
[23] = dose: 200.0 mg/kg/injection, schedule: Q04DX002 (ip), vehicle: Klucel (hydroxypropylcellulose) (HPC)
[24] = dose: 400.0 mg/kg/injection, schedule: Q04DX002 (ip), vehicle: Klucel (hydroxypropylcellulose) (HPC)

Measured: T/C

O=C(COc1cccc(Cl)c1)Nc1cccnc1
inactive: dose: 12.0 mg/kg/injection, schedule: Q01DX009 (ip), vehicle: Klucel (hydroxypropylcellulose) (HPC) 89 % of control | [1] 98 % of control | [2] 92 % of control | [3] 93 % of control | [4] 103 % of control | [5] 87 % of control

OCC(CO)(CO)CBr
inactive: [6] 96 % of control | dose: 100.0 mg/kg/injection, schedule: Q04DX003 (ip), vehicle: saline 103 % of control | [7] 105 % of control | dose: 200.0 mg/kg/injection, schedule: Q04DX003 (ip), vehicle: saline 98 % of control | [8] 104 % of control | dose: 400.0 mg/kg/injection, schedule: Q04DX003 (ip), vehicle: saline 104 % of control

CCOP(=O)(OCC)C(=Cc1ccccc1)P(=O)(OCC)OCC
inactive: dose: 100.0 mg/kg/injection, schedule: Q01DX001 (ip), vehicle: saline with Tween-80 106 % of control | [9] 107 % of control | dose: 200.0 mg/kg/injection, schedule: Q01DX001 (ip), vehicle: saline with Tween-80 103 % of control | [10] 105 % of control | dose: 400.0 mg/kg/injection, schedule: Q01DX001 (ip), vehicle: saline with Tween-80 103 % of control | [11] 107 % of control

ClC(Cl)(Cl)c1nccnc1Br
inactive: [12] 111 % of control | [1] 94 % of control | [2] 94 % of control and 104 % of control

CC(C1CCCC1)C1CCCC1
inactive: [13] 96 % of control | dose: 200.0 mg/kg/injection, schedule: Q04DX002 (ip), vehicle: saline with Tween-80 90 % of control | dose: 400.0 mg/kg/injection, schedule: Q04DX002 (ip), vehicle: saline with Tween-80 109 % of control

COC(=O)c1ccc(N)cc1O
inactive: [1] 101 % of control | [2] 106 % of control | [14] 99 % of control and 101 % of control | [3] 98 % of control | [15] 105 % of control | [4] 102 % of control | [16] 93 % of control

O=C(CCCc1ccc(N(CCCl)CCCl)cc1)OCCc1ccccc1
inactive: [17] 111 % of control | [18] 114 % of control | dose: 100.0 mg/kg/injection, schedule: Q04DX002 (ip), vehicle: saline 124 % of control | dose: 200.0 mg/kg/injection, schedule: Q04DX002 (ip), vehicle: saline 112 % of control and 122 % of control | dose: 400.0 mg/kg/injection, schedule: Q04DX002 (ip), vehicle: saline 112 % of control

COc1nccnc1NS(=O)(=O)c1ccc(N)cc1
inactive: [19] 95 % of control | [6] 92 % of control | [20] 96 % of control | [7] 106 % of control | [21] 102 % of control | [8] 92 % of control

O=C(Nc1cccc(Cl)c1)OCC(Cl)(Cl)Cl
inactive: [14] 88 % of control | [3] 98 % of control | [15] 95 % of control | [4] 104 % of control | [5] 92 % of control | [16] 100 % of control

CC(C)(C)OC(=O)NC(C(=O)O)C1=CCC=CC1 (stereo not drawn)
inactive: [3] 94 % of control | [16] 102 % of control

O=c1[nH]c2c(cc1Br)C(Br)C(Br)C=C2 (stereo not drawn)
inactive: dose: 100.0 mg/kg/injection, schedule: Q01DX001 (ip), vehicle: other 105 % of control | dose: 200.0 mg/kg/injection, schedule: Q01DX001 (ip), vehicle: other 108 % of control

CC1(C)CC(=NNC(N)=S)CC(C)(C)N1O
inactive: [17] 102 % of control | dose: 50.0 mg/kg/injection, schedule: Q04DX002 (ip), vehicle: saline with Tween-80 93 % of control | [18] 94 % of control | [13] 101 % of control

CN1C2CCC1C(=O)N(Cc1ccccc1)C2=O
inactive: dose: 100.0 mg/kg/injection, schedule: Q04DX003 (ip), vehicle: saline with Tween-80 102 % of control | dose: 200.0 mg/kg/injection, schedule: Q04DX003 (ip), vehicle: saline with Tween-80 93 % of control | dose: 400.0 mg/kg/injection, schedule: Q04DX003 (ip), vehicle: saline with Tween-80 101 % of control

COc1ccc(OC)c2c(C)cc(=O)[nH]c12
inactive: [19] 97 % of control | [20] 98 % of control

COc1c(Cl)cc2c(c1OC)N(C)C1N3C(=O)C4(C)SSC3(C(=O)N4C)C(O)C21O (stereo not drawn)
inactive: dose: 0.12 mg/kg/injection, schedule: Q01DX009 (ip), vehicle: Klucel (hydroxypropylcellulose) (HPC) 106 % of control | dose: 0.25 mg/kg/injection, schedule: Q01DX009 (ip), vehicle: Klucel (hydroxypropylcellulose) (HPC) 101 % of control | dose: 0.5 mg/kg/injection, schedule: Q01DX009 (ip), vehicle: Klucel (hydroxypropylcellulose) (HPC) 110 % of control | dose: 1.0 mg/kg/injection, schedule: Q01DX009 (ip), vehicle: Klucel (hydroxypropylcellulose) (HPC) 108 % of control

COC(=O)C(NC(C)=O)C(=O)OC
inactive: [14] 98 % of control | [3] 90 % of control | [15] 104 % of control | [4] 98 % of control | [5] 96 % of control | [16] 106 % of control

CCCCCCCCCCCCCCCCOc1ccc(F)cc1F
inactive: [22] 118 % of control | [23] 96 % of control | [24] 96 % of control

COc1ccc(C(C#N)=C2C=CC(=NO)C=C2)cc1
inactive: [9] 94 % of control

Cc1cc(C)nc(NC(N)=NCCc2ccccc2)n1
inactive: [12] 101 % of control | dose: 12.5 mg/kg/injection, schedule: Q04DX003 (ip), vehicle: Klucel (hydroxypropylcellulose) (HPC) 102 % of control | [1] 101 % of control | dose: 25.0 mg/kg/injection, schedule: Q04DX003 (ip), vehicle: Klucel (hydroxypropylcellulose) (HPC) 100 % of control | [2] 101 % of control | dose: 50.0 mg/kg/injection, schedule: Q04DX003 (ip), vehicle: Klucel (hydroxypropylcellulose) (HPC) 102 % of control

O=C(Nc1ccc(C2=NCCN2)cc1)c1ccc(C(=O)Nc2ccc(C3=NCCN3)cc2)c(O)c1
inactive: dose: 15.0 mg/kg/injection, schedule: Q01DX Z (ip), vehicle: methylcellulose (MC) 96 % of control | dose: 30.0 mg/kg/injection, schedule: Q01DX Z (ip), vehicle: methylcellulose (MC) 98 % of control | dose: 60.0 mg/kg/injection, schedule: Q01DX Z (ip), vehicle: methylcellulose (MC) 93 % of control | dose: 120.0 mg/kg/injection, schedule: Q01DX Z (ip), vehicle: methylcellulose (MC) 93 % of control

CCS/C(Cl)=C(\Cl)SCC
inactive: [1] 101 % of control | [2] 106 % of control | [14] 102 % of control and 109 % of control

Cc1cc([N+](=O)[O-])c(NC2CCCCC2)c([N+](=O)[O-])c1
inactive: [22] 100 % of control | [23] 93 % of control | [24] 96 % of control

O=C(O)c1ccc(/C=N/NC(=S)Nc2cccc3cccnc23)cc1
inactive: [20] 94 % of control | [21] 97 % of control

CC(=O)N(C)c1ccc(NC(=O)Nc2cccc(C(F)(F)F)c2)cc1
inactive: [9] 94 % of control | [10] 99 % of control | [11] 97 % of control

CC1(C)CCC(=NNC(N)=S)CC1
inactive: dose: 5.0 mg/kg/injection, schedule: Q01DX001 (ip), vehicle: carboxymethylcellulose (CMC) 101 % of control | dose: 10.0 mg/kg/injection, schedule: Q01DX001 (ip), vehicle: carboxymethylcellulose (CMC) 97 % of control | dose: 20.0 mg/kg/injection, schedule: Q01DX001 (ip), vehicle: carboxymethylcellulose (CMC) 92 % of control | dose: 40.0 mg/kg/injection, schedule: Q01DX001 (ip), vehicle: carboxymethylcellulose (CMC) 92 % of control

O=C1C=C(NC(Cc2cnc[nH]2)C(=O)O)c2ccccc2C1=O (stereo not drawn)
inactive: dose: 50.0 mg/kg/injection, schedule: Q01DX009 (ip), vehicle: saline with Tween-80 97 % of control | [9] 100 % of control | [10] 93 % of control
